# Assay results taken from patent publication US20250314636A1, “METHOD OF PREPARING AND EXPANDING A POPULATION OF IMMUNE CELLS FOR CANCER THERAPY, POTENCY ASSAY FOR TUMOR RECOGNITION, BIOLOGICAL VACCINE PREPARATION AND EPITOPETARGET FOR ANTIBODIES” (FUNDAÇÃO D. ANNA DE SOMMER CHAMPALIMAUD E DR. CARLOS MONTEZ …, priority 2022, published 2025).
# Where two headings read alike, the source gives them in different places.
# Assays:
# [1] = test system: TIL; assay: Peptide recognition assay in TIL (IFN-γ ELISA / IL-17 in supernatant, 7 days); type: cell-based, human; parameters: IFN-γ production, TIL: unit not given here; details: for IFN-γ production, TIL: 10e4 TIL/well co-cultured with the peptide for 7 days, supernatant tested; for Pancreatic TIL D1599 IFN-y / Pancreatic TILD1599 IL 17: Pancreatic TIL D1599; for IFN-γ production (in words): positive controls
# Protocol: (§1) Peptides from tumor-associated antigens (TAAs), listed in Table 5 were placed at 1 ug/well in duplicates using anti-CD3 at 30 ng/mL as well as PHA at 5 μg/mL as positive controls.
# (§2) The differences in TIL versus PBMCs can also be defined by peptide reactivity. 10e^4 TIL or 10e^4 PBMC/well were co-cultured with the peptides listed in Table 11 below for 7 days and the supernatants were tested for IFN-γ production.
# [2] = test system: PBMCs; assay: Peptide recognition assay in PBMCs (IFN-γ in supernatant, 7 days); type: cell-based, human; details: for IFN-γ production, PBMCs: 10e4 PBMC/well co-cultured with the peptide for 7 days, supernatant tested; for PBMCs IFN-y: PBMCs harvested same day as skin lesion
# Protocol: as §1, §2
# [3] = test system: PANC-1; assay: Cellular recognition assay: allogeneic tumor cell line PANC-1; type: cell-based, human; details: CD1d restricted IFN-γ production
# Protocol: All antibodies are commercially available.
# siRNA against MR1 was used to silence MR1 expression using Silencer Select Pre-designed siRNA (Ambion, Thermo Fisher)). A scramble siRNA was used as negative control (Ambion, Thermo Fisher). Briefly, target cells were seeded 24 h before transfection, both siRNAs were used at 10 μM with lipofectamine RNA iMAX diluted in OptiMEM, incubated for 5 minutes, and added on top of the cells. Cells were incubated for 48 h before being used on the respective assays.
# Autologous tumor, confirmed by standard histology, was viably snap frozen and then thawed to be used as targets in recognition assays once TIL had been expanded. Small autologous tumor pieces (1 mm^3) from tumor areas that contained tumor cells were tested in duplicates. TIL were incubated with tumor pieces or allogeneic tumor cells in CellGenix GMP DC media supplemented with 10% serum in the presence of IL-2 (50 IU/mL) and IL-15 (10 IU/mL) for testing MAIT—cells. TCR αβ T-cells or TCR γδ cells were tested for autologous or allogeneic tumor recognition using 100 IU IL-2/mL and 100 IU IL-15/mL; or using 100 IU IL-7/mL combined with 100 IU IL-15/mL. […]
# [4] = test system: TIL
# Protocol: TIL were seeded at 10^4/well in medium with 10% human serum added 24 h later and reduced cytokine concentrations (IL-2 at 100 IU/mL, IL-15 at 100 IU/mL). Supernatants were tested for IFN-γ production with the Human IFN-γ ELISA basic kit (HRP) (Mabtech, 3420-1H-6) according to the manufacturer's instructions. The assay can also be performed using IL-7 at 100 IU/mL and 100 IU IL-15/mL).
# MHC class I responses were blocked using mAb clone w6/32 (mouse IgG2a) at 10 μg/mL, anti-HLA-DR clone L243 (mouse IgG2a) at 10 μg/mL, anti-HLA-DP clone B7/21 (mouse IgG3) at 10 μg/mL, anti-CD1d clone CD1d42 (mouse IgG1) at 10 μg/mL. Isotype control antibodies included mouse IgG2a and mouse IgG1 at 10 μg/mL. MR1 responses were blocked using the mAb clone 26.5 (mouse IgG2a) at 10 μg/mL. All antibodies are commercially available.
# [5] = test system: Posterior skin lesion T-cells; assay: Peptide recognition by T-cells expanded from skin lesions (IFN-γ, 7 days); type: cell-based, human; details: T-cells expanded from skin lesion of patient with solid cancer
# Protocol: as §1
# [6] = TIL that reacted against Human U11/U12 snRNP 35 kDa protein (81-90) tailored for HLA-B3501, + anti-ABC
# [7] = TIL that reacted against Human U11/U12 snRNP 35 kDa protein (81-90) tailored for HLA-B3501, + anti-DR
# [8] = TIL that reacted against Human U11/U12 snRNP 35 kDa protein (81-90) tailored for HLA-B3501, no blocking antibody
# [9] = TIL that reacted against SARS-CoV-2 spike (212-220) tailored for HLA-B3501, + anti-ABC
# [10] = TIL that reacted against SARS-CoV-2 spike (212-220) tailored for HLA-B3501, + anti-DR
# [11] = TIL that reacted against SARS-CoV-2 spike (212-220) tailored for HLA-B3501, no blocking antibody
Compound,"IFN-γ production, TIL [1]","IFN-γ production, PBMCs [2]",other results
TTPLPVTIPSSASSG,0,0,
Cc1oncc1C(=O)Nc1ccc(C(F)(F)F)cc1 [Leflunomide],,,PANC-1 recognition by γδ+ TIL after pretreatment of PANC-1 cells [3]: not changed
KLVVVGAVGVGKSAL,0,0,
YKLVVVGADGVGKSALT,0,0,
LVVVGAGCVGKSALT,0,0,
PVTSPSSASTGHAIP,0,0,
TPLPVTDNSSASTGD,0,0,
MQEALSGTPCLLGPG,0,0,
LVVVGAVGVGKSALT,0,0,
LP(V)RDLVTGF,,,"IFN-γ Production [4, 6]: 1908.56; IL-17 Production [4, 6]: 81.91; IFN-γ Production [4, 7]: 1509.64; IL-17 Production [4, 7]: 444.01; IFN-γ Production [4, 8]: 2444.61; IL-17 Production [4, 8]: 330.14; IFN-γ Production [4, 9]: 879.62; IL-17 Production [4, 9]: 0.00; IFN-γ Production [4, 10]: 1289.42; IL-17 Production [4, 10]: 420.07; IFN-γ Production [4, 11]: 1230.50; IL-17 Production [4, 11]: 372.84"
TPLPVTDTSSASTGH,0,0,
LDILDTAGKEEYSAMRD,0,0,
HRLSEPPEDLDALPL,0,0,
LDILDTAGREEYSAMRD,150,0,
YKLVVVGAVGVGKSALT,0,0,
YKLVVVGARGVGKSALT,0,0,
LVVVGAGSVGKSALT,0,0,
TTPLPVTSPSSASSG,0,0,
KLVVVGAGGVGKSALTI,0,0,
TPLPVTDASSASTGH,0,0,
SVSTMDALRGLLPVL,0,0,
VTDTSSASTGH,0,0,
WAVRPQDLDTCDPRQ,0,0,
LVVVGAGAVGKSALT,0,0,
TPLPVTDTSSASTGD,0,0,

Compound,"IFN-γ production, TIL [1]","IFN-γ production, PBMCs [2]",other results
KLVVVGAGDVGKSALTI,0,0,
COc1cccc2c1C(=O)c1c(O)c3c(c(O)c1C2=O)C[C@@](O)(C(=O)CO)C[C@@H]3O[C@H]1C[C@H](N)[C@H](O)[C@H](C)O1 [doxorubicin],,,PANC-1 recognition by γδ+ TIL after pretreatment of PANC-1 cells [3]: not changed
PVTSPSSESTGHAIP,0,0,
LDVLYPKARLAFQNM,0,0,
LQGGIPNGYLVLDLS,0,0,
FVAESAEVLLPRLVS,0,0,
PMVLVGNNCDLPSRT,0,0,
LLPRGAPERQRLLPA,0,0,
"OKT3: anti-CD3 directed antibody crosslinking the T-cell receptor, 30 ng/ml from Biolegend or Human Cell [reference compound]",0,63,"IFN-γ Production [4, 8]: 3333.24; IL-17 Production [4, 8]: 417.70; IFN-γ Production [4, 11]: 2540.06; IL-17 Production [4, 11]: 305.99; Pancreatic TIL D1599 IFN-y [1]: 200 pg/mL; Pancreatic TILD1599 IL 17 [1]: 0 pg/mL; IFN-γ production (in words) ([1]; TIL D1599): Strong IFN-γ production; PBMCs IFN-y ([2]; first PBMCs column): 0.0 pg/ml/7 days; PBMCs IFN-y ([2]; second PBMCs column): 0.0 pg/ml/7 days; Posterior skin lesion T-cells IFN-y [5]: 27.0 pg/ml/7 days"
YKLVVVGASGVGKSALT,0,0,
ALACWGVRGSLLSEA,0,0,
LVVVGAGRVGKSALT,0,0,
"phytohemagglutinin [PHA, reference compound]",1336,71,"Pancreatic TIL D1599 IFN-y [1]: 417 pg/mL; Pancreatic TILD1599 IL 17 [1]: 4 pg/mL; IL-17 production (in words) ([1]; positive control, TIL D1599): only limited amount of IL-17 production; IFN-γ production (in words) ([1]; TIL D1599): Strong IFN-γ production; PBMCs IFN-y ([2]; first PBMCs column): 165.7 pg/ml/7 days; PBMCs IFN-y ([2]; second PBMCs column): 165.7 pg/ml/7 days; Posterior skin lesion T-cells IFN-y [5]: 901.0 pg/ml/7 days"
TLGEFLKLDRERAKN,0,0,
ELNNALQNL,6,0,
YKLVVVGAGGVGKSALT,0,0,
YKLVVVGACGVGKSALT,0,0,
DILDTAGLEEYSAMR,0,0,
PVTSLSSASTGDTTP,0,0,
LP(V)RDLPQGF,,,"IFN-γ Production [4, 6]: 2062.87; IL-17 Production [4, 6]: 12.68; IFN-γ Production [4, 7]: 1974.19; IL-17 Production [4, 7]: 257.46; IFN-γ Production [4, 8]: 2611.08; IL-17 Production [4, 8]: 238.70; IFN-γ Production [4, 9]: 138.58; IL-17 Production [4, 9]: 0.00; IFN-γ Production [4, 10]: 1057.65; IL-17 Production [4, 10]: 428.92; IFN-γ Production [4, 11]: 1457.59; IL-17 Production [4, 11]: 462.99"
PVTSTSSVSTGHATP,0,0,
PVTSLSSVSTGDTTP,0,0,
LDILDTAGHEEYSAMRD,0,0,
YKLVVVGAAGVGKSALT,0,0,
YEQLDVLKHKLDELY,0,0,
